Data as given in US8728439B2, “System and method for indirectly measuring calcium ion efflux” (Celtrast LLC, priority 2008, dated 2014).

Experiments:
[1] = Heart rate post-MnCl2 infusion
Method: MEMRI experiments were performed in 62 healthy adult male C57Bl/6 mice (6-14 weeks old, 24.0±1.9 g) following the guidelines of the Institutional Animal Care and Use Committee at the Medical College of Georgia, Augusta, Ga., USA. For all experimental procedures, the animals were anesthetized with a mixture of medical air, oxygen (1:1) and 2.5-3.0% isoflurane. The heart rate (HR) was maintained at 436±42 beats per minute (bpm) throughout the experiment by carefully adjusting the level of isoflurane. A custom-made water bed set at 38° C. maintained a constant animal body temperature in the cradle throughout the MEMRI procedure.
MEMRI data were acquired on a 7.0-T 20-cm horizontal bore Bruker BioSpec MRI spectrometer (Bruker Instruments, Billerica, Mass., USA) equipped with a micro-imaging gradient insert (950 mT/m). […] A standard Bruker volume coil (35 mm inner diameter) was used to transmit and receive at ^1H frequency (300 MHz). Electrocardiographic (ECG) and respiratory signals were monitored by a physiological monitoring system (SA Instruments, INC., Stony Brook, N.Y.) with the ECG signal used to gate the images. All images were gated from the ECG R-wave acquired during end-diastole. Short axis images were acquired midway through the left ventricle and perpendicular to the long axis of the heart. A T1-weighted MRI Gradient Echo Flow Compensation (GEFC) pulse sequence was used for slice localization with the imaging parameters as follows: matrix=128×128; TE=3.5 ms; TR=35 ms; slice thickness=1.0 mm; FOV=3.0×3.0 cm; flip angle=60° and NA=6. TR was purposely set at a time shorter than the R-R period (138±1.5 ms) detected on the ECG. Therefore, the true repetition time for the imaging sequence was the R-R period.

NCX = biological target: T1, NCX (Mus musculus, UniProt P70414); assay: MEMRI T1-mapping of LV Wall ΔR1 washout (Mn2+ efflux) after MnCl2 infusion, with or without NCX inhibitor; assay type: in vivo, C57Bl/6 mice; details: for average LV Wall ΔR1: 4.9-5.9 hours post-MnCl2 infusion; for ΔR1,0 (extrapolated ΔR1 at the time of MnCl2 infusion): fit t>=1 hour
T1 construct: from tissue; host or cells: myocardium (left ventricular free wall) of living C57Bl/6 mice

[2] = Absolute Mn content in heart tissue by ICP-MS; assay type: in vivo, C57Bl/6 mice; details: 50 mg/kg SEA0400; approximately 6 hours post-MnCl2
Method: As previously stated, all mice were anesthetized during the experimental procedures: contrast agent infusion, drug administration, and imaging sessions. The mice were allowed to recover between procedures so as to […] the time each mouse was under anesthesia to 2.5 hours, which was then followed by a recovery period of at least 2.5 hours. This protocol minimized any physiological effects caused by the anesthesia; imaging time points selected for each mouse followed these guidelines. In addition, efforts were made to alter the time interval between successive data points so as not to bias the results with potential anesthesia effects. […] A subgroup of randomly selected animals (n=16) was sacrificed immediately after imaging to measure absolute Mn content in heart tissue (n=14) and blood samples (n=6) by inductively coupled plasma-mass spectrometry (ICP-MS) analysis ([…] Ltd., North Vancouver, BC, Canada). The samples were harvested approximately one hour after the initiation of the final T1-map. This time delay was due to the length of time required to acquire the T1-map, and the time required to harvest the samples, and remained constant for all of the samples. […] No statistically significant differences between the groups were found following linear least-square fitting to the data. […]

CCOc1ccc(Oc2ccc(OCc3cc(F)ccc3F)cc2)c(N)c1 [SEA0400]
average post-MnCl2 infusion heart rate ([1]; 20 mg/kg SEA0400): 449±30 bpm | average post-MnCl2 infusion heart rate ([1]; 50 mg/kg SEA0400): 443±28 bpm | difference in heart rate between the experimental groups ([1]; control, 20 mg/kg and 50 mg/kg SEA0400, p=0.08): No significant differences in HR | average LV Wall ΔR1 (NCX; 20 mg/kg SEA0400): 1.72 ± 0.24 s⁻¹ | half-life versus control group (extra sum-of-squares F test) (NCX; 20 mg/kg SEA0400, p=0.54): not statistically different from the control group | ΔR1,0 (extrapolated ΔR1 at the time of MnCl2 infusion) (NCX; 20 mg/kg SEA0400 i.p. one hour post-MnCl2): 4.8 ± 0.2 s⁻¹ | average LV Wall ΔR1 (NCX; 50 mg/kg SEA0400): 2.46 ± 0.29 s⁻¹ | half-life versus control group (extra sum-of-squares F test) (NCX; 50 mg/kg SEA0400, p=0.006): significantly different from the control group | ΔR1,0 (extrapolated ΔR1 at the time of MnCl2 infusion) (NCX; 50 mg/kg SEA0400 i.p. one hour post-MnCl2): 4.3 ± 0.4 s⁻¹ | absolute cardiac Mn concentration [2]: 27.1 µg/g
